Results as given in paper PMC9944328 (Nature Communications, 2023).
Read-outs that look alike come from different tables or passages of the source.

System: SSTR2 mutants
Experiment: SSTRs Gi-mediated cAMP inhibition, GloSensor, HEK293, 5 μM forskolin, 15 min room temperature (SSTR2 mutants)
Assay type: cell-based, human
Set-up: Best-fit Bottom, cAMP inhibition / Best-fit Top, cAMP inhibition / Span, cAMP inhibition / Bottom (best-fit value) / Top (best-fit value) / Span (best-fit value) / Span (best-fit) / Bottom (best-fit) / Top (best-fit) / Best-fit Bottom / Best-fit Top / Best-fit Span / Top / Span: scale not given here
Method: The levels of the intracellular 3′, 5′-cyclic AMP (cAMP) were measured by the GloSensor cAMP assay (Promega) as described in the previous studies[28],[41] which has been widely used. The human full-length SSTRs and mutants were cloned into the pcDNA3.1+ vector with a HA signal sequence followed by a Flag tag at the N-terminus. HEK293 cells (ATCC, CRL-1573) were seeded into 6-well microplates at a density of 1.0 × 10^6 cells/well and cultured for 24 h at 37 °C with 5% CO2. Cells were then co-transfected with SSTR wild-type or mutants and GloSensor plasmids. After 24 h of transfection, the cells were dissociated with TrypLE™ Express Enzyme (1X) (Thermo Fisher Scientific) and collected by centrifugation at 500 × g for 5 min. Then the collected cells were suspended in Hank’s balanced salt solution [HBSS (Thermo Fisher Scientific)] supplemented with […] (YEASEN), and then the suspension cells were seeded into 96-well plates with 90 μl/well. After incubating at room temperature for 40 min, 5 μM forskolin and ligands diluted in HBSS were added to each well and the plates were incubated at room temperature for 15 min. […] were measured using the Synergy H1 microplate reader (BioTek) and the data presented are means of at least three independent experiments.

C[C@@H](O)[C@@H]1NC(=O)[C@H](CCCCN)NC(=O)[C@@H](Cc2c[nH]c3ccccc23)NC(=O)[C@H](Cc2ccccc2)NC(=O)[C@@H](NC(=O)[C@H](N)Cc2ccccc2)CSSC[C@@H](C(=O)N[C@H](CO)[C@@H](C)O)NC1=O [octreotide]
Best-fit Bottom (D295A-1): -10.23
Best-fit Span (D295A-1): 99.42
Best-fit Top (D295A-1): 89.19
LogEC50 (D295A-1): -8.381
EC50 (D295A-1, read-out: EC50): 4.16 nM
Best-fit Bottom (D295A-2): 1.886
Best-fit Span (D295A-2): 96.17
Best-fit Top (D295A-2): 98.06
LogEC50 (D295A-2): -8.514
EC50 (D295A-2, read-out: EC50): 3.06 nM
Best-fit Span (D295A-3): 116.5
Best-fit Top (D295A-3): 121.2
LogEC50 (D295A-3): -8.224
EC50 (D295A-3, read-out: EC50): 5.97 nM
Span (best-fit) (F208A-1): 78.86
Span (best-fit) (F208A-2): 58.27
Bottom (best-fit) (F265A-1): 0.9849
LogEC50 (best-fit) (F265A-1): -7.854
Span (best-fit) (F265A-1): 101.1
Top (best-fit) (F265A-1): 102.1
EC50 (F265A-1, read-out: EC50 (best-fit)): 14 nM
Bottom (best-fit) (F265A-2): 21.57
LogEC50 (best-fit) (F265A-2): -8.682
Span (best-fit) (F265A-2): 69.47
Top (best-fit) (F265A-2): 91.04
EC50 (F265A-2, read-out: EC50 (best-fit)): 2.08 nM
Bottom (best-fit) (F265A-3): 0.9849
LogEC50 (best-fit) (F265A-3): -7.854
Span (best-fit) (F265A-3): 101.1
Top (best-fit) (F265A-3): 102.1
Bottom (best-fit) (F272A-1): 2.117
LogEC50 (best-fit) (F272A-1): -8.522
Span (best-fit) (F272A-1): 53.6
Top (best-fit) (F272A-1): 55.72
EC50 (F272A-1, read-out: EC50 (best-fit)): 3 nM
Bottom (best-fit) (F272A-2): 11.48
LogEC50 (best-fit) (F272A-2): -6.317
Span (best-fit) (F272A-2): 89.48
Top (best-fit) (F272A-2): 101
EC50 (F272A-2, read-out: EC50 (best-fit)): 482 nM
Bottom (best-fit) (F272A-3): 14.59
LogEC50 (best-fit) (F272A-3): -6.317
Span (best-fit) (F272A-3): 113.7
Top (best-fit) (F272A-3): 128.3
Best-fit Bottom (F294A-1): 3.53
Best-fit Span (F294A-1): 87.88
Best-fit Top (F294A-1): 91.41
LogEC50 (F294A-1): -6.677
EC50 (F294A-1, read-out: EC50): 211 nM
Best-fit Bottom (F294A-2): 6.308
Best-fit Span (F294A-2): 82.91
Best-fit Top (F294A-2): 89.22
LogEC50 (F294A-2): -6.828
EC50 (F294A-2, read-out: EC50): 149 nM
Best-fit Bottom (F294A-3): 4.16
Best-fit Span (F294A-3): 103.6
Best-fit Top (F294A-3): 107.7
LogEC50 (F294A-3): -6.677
Emax (Gi signaling, I130A, earlier manuscript version quoted by reviewer, superseded): 91%
Emax (Gi signaling, Q102A, earlier manuscript version quoted by reviewer, superseded): 109%
Emax (Gi signaling, SSTR2 D122(3.32)A, detected at 10 μM, n=3): 12.04±1.83 %WT
Emax (Gi signaling, SSTR2 D295(7.36)A, n=3): 102.80±9.54 %WT
EC50 (Gi signaling, SSTR2 D295(7.36)A, n=3, read-out: EC50): 4.4 ± 8.48 nM
Emax (Gi signaling, SSTR2 F127(3.37)A, n=3): 108.70±0.91 %WT
EC50 (Gi signaling, SSTR2 F127(3.37)A, n=3, read-out: EC50): 1.93 nM
Emax (Gi signaling, SSTR2 F208(5.38)A, n=3): 96.46±2.20 %WT
EC50 (Gi signaling, SSTR2 F208(5.38)A, n=3, read-out: EC50): 6.42 ± 2.37 nM
Emax (Gi signaling, SSTR2 F265(6.44)A, n=3): 99.81±4.55 %WT
EC50 (Gi signaling, SSTR2 F265(6.44)A, n=3, read-out: EC50): 12.3 ± 5.46 nM
Emax (Gi signaling, SSTR2 F272A, n=3): 95.01±21.17 %WT
EC50 (Gi signaling, SSTR2 F272A, n=3, read-out: EC50): 322.3 ± 1.6 nM
Emax (Gi signaling, SSTR2 F294(7.35)A, n=3): 96.11±5.83 %WT
EC50 (Gi signaling, SSTR2 F294(7.35)A, n=3, read-out: EC50): 190 ± 2.07 nM
Emax (Gi signaling, SSTR2 I130(3.40)A, n=3): 101.10±5.08 %WT
EC50 (Gi signaling, SSTR2 I130(3.40)A, n=3, read-out: EC50): 11.6 ± 4.99 nM
Emax (Gi signaling, SSTR2 I195(45.52)A, n=3): 100.40±3.58 %WT
EC50 (Gi signaling, SSTR2 I195(45.52)A, n=3, read-out: EC50): 6.58 ± 1.1 nM
Emax (Gi signaling, SSTR2 I284ECL3A, n=3): 97.53±14.28 %WT
EC50 (Gi signaling, SSTR2 I284ECL3A, n=3, read-out: EC50): 1.91 ± 4.66 nM
Emax (Gi signaling, SSTR2 K291(7.32)A, n=3): 89.41±10.26 %WT
EC50 (Gi signaling, SSTR2 K291(7.32)A, n=3, read-out: EC50): 5.46 ± 1.06 nM
Emax (Gi signaling, SSTR2 L99(2.60)A, n=3): 92.36±6.12 %WT
EC50 (Gi signaling, SSTR2 L99(2.60)A, n=3, read-out: EC50): 1.25 nM
Emax (Gi signaling, SSTR2 L290(7.31)A, n=3): 103.50±7.16 %WT
Emax (Gi signaling, SSTR2 N276(6.55)A, n=3): 107.20±5.70 %WT
EC50 (Gi signaling, SSTR2 N276(6.55)A, n=3, read-out: EC50): 35.1 ± 8.45 nM
Emax (Gi signaling, SSTR2 P220(5.50)A, n=3): 95.86±14.17 %WT
EC50 (Gi signaling, SSTR2 P220(5.50)A, n=3, read-out: EC50): 3.37 ± 1.32 nM
Emax (Gi signaling, SSTR2 P286ECL3A, n=3): 102.40±5.34 %WT
EC50 (Gi signaling, SSTR2 P286ECL3A, n=3, read-out: EC50): 0.62 ± 1.18 nM
Emax (Gi signaling, SSTR2 Q102(2.63)A, n=3): 71.48±1.31 %WT
EC50 (Gi signaling, SSTR2 Q102(2.63)A, n=3, read-out: EC50): 66.8 ± 2.72 nM
Emax (Gi signaling, SSTR2 Q126(3.36)A, detected at 10 μM, n=3): 21.88±1.91 %WT
Emax (Gi signaling, SSTR2 S279(6.58)A, n=3): 101.70±5.61 %WT
EC50 (Gi signaling, SSTR2 S279(6.58)A, n=3, read-out: EC50): 1.17 ± 1.01 nM
Emax (Gi signaling, SSTR2 S285ECL3A, n=3): 87.52±6.00 %WT
EC50 (Gi signaling, SSTR2 S285ECL3A, n=3, read-out: EC50): 0.69 ± 1.18 nM
Emax (Gi signaling, SSTR2 T194(45.51)A, n=3): 91.51±3.38 %WT
EC50 (Gi signaling, SSTR2 T194(45.51)A, n=3, read-out: EC50): 48.5 ± 2.29 nM
Emax (Gi signaling, SSTR2 T287ECL3A, n=3): 98.50±5.26 %WT
EC50 (Gi signaling, SSTR2 T287ECL3A, n=3, read-out: EC50): 0.6 nM
Emax (Gi signaling, SSTR2 V103(2.64)A, n=3): 90.80±3.48 %WT
EC50 (Gi signaling, SSTR2 V103(2.64)A, n=3, read-out: EC50): 7.66 ± 2.51 nM
Emax (Gi signaling, SSTR2 W188ECL3A, n=3): 102.40±5.12 %WT
EC50 (Gi signaling, SSTR2 W188ECL3A, n=3, read-out: EC50): 0.32 nM
Emax (Gi signaling, SSTR2 W269(6.48)A, n=3): 99.58±2.56 %WT
EC50 (Gi signaling, SSTR2 W269(6.48)A, n=3, read-out: EC50): 0.89 ± 2.24 nM
Emax (Gi signaling, SSTR2 Y50(1.39)A, n=3): 104.70±0.48 %WT
EC50 (Gi signaling, SSTR2 Y50(1.39)A, n=3, read-out: EC50): 0.46 nM
Emax (Gi signaling, SSTR2 Y205(5.35)A, n=3): 112.90±25.77 %WT
EC50 (Gi signaling, SSTR2 Y205(5.35)A, n=3, read-out: EC50): 0.92 nM
Emax (Gi signaling, SSTR2 Y302(7.43)A, n=3): 79.09±10.74 %WT
EC50 (Gi signaling, SSTR2 Y302(7.43)A, n=3, read-out: EC50): 79 ± 2.7 nM
Bottom (best-fit value) (I284A-1, run 1): 8.872
LogEC50 (best-fit value) (I284A-1, run 1): -8.868
Span (best-fit value) (I284A-1, run 1): 107.4
